According to US7192746B2, “α-Isomaltosyltransferase, process for producing the same and use thereof” (Kabushiki Kaisha Hayashibara Seibutsu Kagaku Kenkyujo, priority 2000, dated 2007):

How the values were obtained:
Type in all cases: biochemical
[1] = tested on: α-isomaltosyl-transferring enzyme from Bacillus globisporus C9; experiment: Specificity to transferring acceptor; parameters: key: −: no saccharide transferred product was formed; ±: a saccharide-transferred product formed in an amount of less than one percent to the total sugars; +: a saccharide-transferred product was formed in an amount of over one percent but below 10% to the total sugars; ++: a saccharide-transferred product was formed in an amount of over 10% to the total sugars; conditions: panose as saccharide donor, 10 units/g substrate, 3.2% (w/v), 30° C., pH 6.0, 24 hours
Protocol: (§1) Saccharides were tested as follows to examine whether they can be used as transferring acceptors for the α-isomaltosyl-transferring enzyme of the present invention. A solution of D-glucose, D-xylose, L-xylose, D-galactose, D-fructose, D-mannose, D-arabinose, D-fucose, L-sorbose, L-rhamnose, methyl-α-glucoside (or methyl-α-glucopyranoside), methyl-β-glucoside (or methyl-β-glucopyranoside), N-acetyl-D-glucosamine, D-ribose, L-ribose, D-psicose, sorbitol, xylitol, mannitol, arabitol, ribitol, erythritol, maltose, maltotriose, maltotetraose, maltopentaose, isomaltose, isomaltotriose, α,α-trehalose, α,β-trehalose, kojibiose, nigerose, cellobiose, gentibiose, isopanose, maltitol, maltotriitol, lactose, sucrose, erlose, isomaltosylglucoside, α-cyclodextrin, β-cyclodextrin, γ-cyclodextrin, or L-ascorbic acid was prepared. To each solution was added panose as a saccharide donor to give an equal concentration, admixed with 10 units/g substrate of a purified specimen of either α-isomaltosyl-transferring enzyme from Bacillus globisporus C9 obtained by the method in Experiment 4, Bacillus globisporus C11 obtained by the method in Experiment 7, Bacillus globisporus N75 obtained by the method in Experiment 11, or Arthrobacter ramosus S1 obtained by the method in Experiment 15, or a partially purified specimen of α-isomaltosyl-transferring enzyme from Arthrobacter globiformis A19 obtained by the method in Experiment 18, followed by adjusting the saccharide concentration to 3.2% (w/v). The mixtures thus obtained were enzymatically reacted at 30° C. and Ph 6.0 for 24 hours. The saccharide composition of the resulting reaction mixtures were analyzed on gas chromatography (abbreviated as “GLC” hereinafter) for monosaccharides and disaccharides as testing saccharides, and on HPLC for tri- or higher-saccharides as testing saccharides to confirm whether these saccharides can be used as transferring acceptors for the above enzymes with an index of the positive or negative formation of a saccharide transferred product. In performing GLC, the following apparatuses and conditions were used: GLC apparatus, “GC-16A” commercialized by Shimadzu Corporation, Tokyo, Japan; column, a stainless-steel column, 3 mm in diameter and 2 m in length, packed with 2% “SILICONE OV-17/[…]”, commercialized by GL Sciences Inc., Tokyo, Japan; carrier gas, nitrogen gas at a flow rate of 40 ml/min under temperature conditions of increasing from 160° C. to 320° C. at an increasing temperature rate of 7.5° C./min; and detection, a hydrogen flame ionization detector. In the case of HPLC analysis, the apparatuses and conditions used were: HPLC apparatus, “CCPD” commercialized by Tosoh Corporation, Tokyo, Japan; column, “ODS-AQ-303” commercialized by YMC Co., Ltd., Tokyo, Japan; eluent, water at a flow rate of 0.5 ml/min; and detection, a differential refractometer.

[2] = tested on: α-isomaltosyl-transferring enzyme from Arthrobacter globiformis A19; experiment: Specificity to transferring acceptor; parameters: key: −: no saccharide transferred product was formed; ±: a saccharide-transferred product formed in an amount of less than one percent to the total sugars; +: a saccharide-transferred product was formed in an amount of over one percent but below 10% to the total sugars; ++: a saccharide-transferred product was formed in an amount of over 10% to the total sugars; conditions: partially purified enzyme, panose as saccharide donor, 10 units/g substrate, 3.2% (w/v), 30° C., pH 6.0, 24 hours
Protocol: as §1

[3] = tested on: α-isomaltosyl-transferring enzyme from Arthrobacter ramosus S1; experiment: Specificity to transferring acceptor; parameters: key: −: no saccharide transferred product was formed; ±: a saccharide-transferred product formed in an amount of less than one percent to the total sugars; +: a saccharide-transferred product was formed in an amount of over one percent but below 10% to the total sugars; ++: a saccharide-transferred product was formed in an amount of over 10% to the total sugars; conditions: panose as saccharide donor, 10 units/g substrate, 3.2% (w/v), 30° C., pH 6.0, 24 hours
Protocol: as §1

[4] = tested on: α-isomaltosyl-transferring enzyme from Bacillus globisporus C11; experiment: Specificity to transferring acceptor; parameters: key: −: no saccharide transferred product was formed; ±: a saccharide-transferred product formed in an amount of less than one percent to the total sugars; +: a saccharide-transferred product was formed in an amount of over one percent but below 10% to the total sugars; ++: a saccharide-transferred product was formed in an amount of over 10% to the total sugars; conditions: panose as saccharide donor, 10 units/g substrate, 3.2% (w/v), 30° C., pH 6.0, 24 hours
Protocol: as §1

[5] = tested on: α-isomaltosyl-transferring enzyme from Bacillus globisporus N75; experiment: Specificity to transferring acceptor; parameters: key: −: no saccharide transferred product was formed; ±: a saccharide-transferred product formed in an amount of less than one percent to the total sugars; +: a saccharide-transferred product was formed in an amount of over one percent but below 10% to the total sugars; ++: a saccharide-transferred product was formed in an amount of over 10% to the total sugars; conditions: panose as saccharide donor, 10 units/g substrate, 3.2% (w/v), 30° C., pH 6.0, 24 hours
Protocol: as §1

[6] = tested on: α-isomaltosyl-transferring enzyme from Bacillus globisporus C9; experiment: Action on saccharides (substrates, TLC); parameters: key: −: there was found no substrate change before and after the enzymatic reaction; +: there were found both the reduction of substrate and the formation of cyclotetrasaccharide after the enzymatic reaction; conditions: 2 units/g substrate, 2% (w/v) substrate, 30° C., pH 6.0, 24 hours
From the text: (§2) To examine the saccharides in the supernatant, they were separated from the supernatant by silica gel thin-layer chromatography (abbreviated as “TLC” hereinafter) using, as a developer, a mixture solution of n-butanol, pyridine, and water (=6:4:1), and, as a thin-layer plate, “[…] 60”, an aluminum plate (20×20 cm) for TLC commercialized by […]. The coloration of both the separated total sugars by the sulfuric acid-methanol method and the reducing saccharides by the diphenylamine-aniline method detected a non-reducing saccharide at a position with an Rf value of about 0.31, which was positive on the former detection method but negative on the latter detection method.
(§3) It was tested whether saccharides can be used as substrates for the α-isomaltosyl-transferring enzyme. For the purpose, a solution of maltose, maltotriose, maltotetraose, maltopentaose, maltohexaose, maltoheptaose, isomaltose, isomaltotriose, panose, isomaltosylmaltose, isopanose, α,α-trehalose, kojibiose, nigerose, α,β-trehalose, cellobiose, gentibiose, maltitol, maltotriitol, lactose, sucrose, α-cyclodextrin, β-cyclodextrin, γ-cyclodextrin, soluble starch, pullulan, or dextran was prepared. To each of the above solutions was added two units/g substrate of a purified specimen of either α-isomaltosyl-transferring enzyme from Bacillus globisporus C9 obtained by the method in Experiment 4, Bacillus globisporus C11 obtained by the method in Experiment 7, Bacillus globisporus N75 obtained by the method in Experiment 11, or Arthrobacter ramosus S1 obtained by the method in Experiment 15, or a partially purified α-isomaltosyl-transferring enzyme from Arthrobacter globiformis A19 obtained by the method in Experiment 15. The resulting each solution was adjusted to give a substrate concentration of 2% (w/v) and incubated at 30° C. and pH 6.0 for 24 hours. The enzyme solutions before and after the enzymatic reactions were respectively analyzed on TLC as disclosed in Experiment 1 to confirm whether the enzymes acted on these substrates.

[7] = tested on: α-isomaltosyl-transferring enzyme from Arthrobacter globiformis A19; experiment: Action on saccharides (substrates, TLC); parameters: key: −: there was found no substrate change before and after the enzymatic reaction; +: there were found both the reduction of substrate and the formation of cyclotetrasaccharide after the enzymatic reaction; conditions: partially purified enzyme, 2 units/g substrate, 2% (w/v) substrate, 30° C., pH 6.0, 24 hours
From the text: as §2, §3

[8] = tested on: α-isomaltosyl-transferring enzyme from Arthrobacter ramosus S1; experiment: Action on saccharides (substrates, TLC); parameters: key: −: there was found no substrate change before and after the enzymatic reaction; +: there were found both the reduction of substrate and the formation of cyclotetrasaccharide after the enzymatic reaction; conditions: 2 units/g substrate, 2% (w/v) substrate, 30° C., pH 6.0, 24 hours
From the text: as §2, §3

[9] = tested on: α-isomaltosyl-transferring enzyme from Bacillus globisporus C11; experiment: Action on saccharides (substrates, TLC); parameters: key: −: there was found no substrate change before and after the enzymatic reaction; +: there were found both the reduction of substrate and the formation of cyclotetrasaccharide after the enzymatic reaction; conditions: 2 units/g substrate, 2% (w/v) substrate, 30° C., pH 6.0, 24 hours
From the text: as §2, §3

[10] = tested on: α-isomaltosyl-transferring enzyme from Bacillus globisporus N75; experiment: Action on saccharides (substrates, TLC); parameters: key: −: there was found no substrate change before and after the enzymatic reaction; +: there were found both the reduction of substrate and the formation of cyclotetrasaccharide after the enzymatic reaction; conditions: 2 units/g substrate, 2% (w/v) substrate, 30° C., pH 6.0, 24 hours
From the text: as §2, §3

Row | Compound | Product of transferring reaction, Enzyme of Strain C9 [1] | Product of transferring reaction, Enzyme of Stain A19 [2] | Product of transferring reaction, Enzyme of Strain S1 [3] | Product of transferring reaction, Enzyme of Strain C11 [4] | Product of transferring reaction, Enzyme of Strain N75 [5] | Enzymatic action for forming cyclotetrasaccharide, Enzyme of Strain C9 [6] | Enzymatic action for forming cyclotetrasaccharide, Enzyme of Strain A19 [7] | Enzymatic action for forming cyclotetrasaccharide, Enzyme of Strain S1 [8] | Enzymatic action for forming cyclotetrasaccharide, Enzyme of Strain C11 [9] | Enzymatic action for forming cyclotetrasaccharide, Enzyme of Strain N75 [10]
1 | O=C[C@H](O)[C@@H](O)[C@H](O[C@@H]1O[C@H](CO)[C@@H](O)[C@H](O)[C@H]1O)[C@H](O)CO [Cellobiose, cellobiose] | + (a saccharide-transferred product was formed in an amount of over one percent but below 10% to the total sugars) | + (a saccharide-transferred product was formed in an amount of over one percent but below 10% to the total sugars) | + (a saccharide-transferred product was formed in an amount of over one percent but below 10% to the total sugars) | + (a saccharide-transferred product was formed in an amount of over one percent but below 10% to the total sugars) | + (a saccharide-transferred product was formed in an amount of over one percent but below 10% to the total sugars) | − | − | − | − | −
2 | OC[C@H]1O[C@H](OC[C@H]2O[C@H](O[C@H]3[C@H](O)[C@@H](O)[C@@H](O[C@H]4[C@H](O)[C@@H](O)C(O)O[C@@H]4CO)O[C@@H]3CO)[C@H](O)[C@@H](O)[C@@H]2O)[C@H](O)[C@@H](O)[C@@H]1O (stereo partly drawn) [Isomaltosylmaltose, isomaltosylmaltose] |  |  |  |  |  | + | + | + | + | +
3 | OC[C@H]1O[C@H](OC[C@H]2O[C@H](O[C@H]3[C@H](O)[C@@H](O)C(O)O[C@@H]3CO)[C@H](O)[C@@H](O)[C@@H]2O)[C@H](O)[C@@H](O)[C@@H]1O (stereo partly drawn) [Panose, panose] |  |  |  |  |  | + | + | + | + | +
4 | OC[C@@H](O)[C@@H](O)[C@H](O)[C@@H](O)CO [Sorbitol, sorbitol] | − | ± (a saccharide-transferred product formed in an amount of less than one percent to the total sugars) | ± (a saccharide-transferred product formed in an amount of less than one percent to the total sugars) | − | − |  |  |  |  | 
5 | OC[C@@H](O)[C@H](O)[C@@H](O)CO [Xylitol, xylitol] | − | ± (a saccharide-transferred product formed in an amount of less than one percent to the total sugars) | ± (a saccharide-transferred product formed in an amount of less than one percent to the total sugars) | − | − |  |  |  |  | 
6 | isomaltosylglucoside | ++ (a saccharide-transferred product was formed in an amount of over 10% to the total sugars) | ++ (a saccharide-transferred product was formed in an amount of over 10% to the total sugars) | ++ (a saccharide-transferred product was formed in an amount of over 10% to the total sugars) | ++ (a saccharide-transferred product was formed in an amount of over 10% to the total sugars) | ++ (a saccharide-transferred product was formed in an amount of over 10% to the total sugars) |  |  |  |  | 
7 | maltoheptaose |  |  |  |  |  | − | − | − | − | −
8 | maltohexaose |  |  |  |  |  | − | − | − | − | −
